Reference: patent US20160205931A1, “SEX PHEROMONE DERIVATIVES, AND METHODS AND USES THEREOF” (Her Majesty the Queen in Right of Canada, as rep. by the …, priority 2015, published 2016)

Legend:
adult EAB = assay: Two-choice Y-tube olfactometer bioassay; assay type: in vivo, Agrilus planipennis; settings: 1 μg stimulus
Description: A Y-tube olfactometer (Analytical Research Systems Inc, Micanopy, Fla., USA) was used to test for short-range attraction of adult EAB to the lactones. […] Each arm was connected to a cylinder that contained the stimulus. Charcoal-filtered air was passed into each arm at a flow rate of 1.2 L/min. Treatments were 1 μg each of (3Z)-lactone, (3E)-lactone, and dodecan-12-olide. Each stimulus was diluted in dichloromethane, placed on a strip of filter paper, and given 1 min for the solvent to evaporate before being placed in the olfactometer. A filter paper with only solvent (control) was placed in the other arm of the olfactometer. The apparatus was rinsed with acetone after each treatment, and the arm attached to the test stimulus was randomized between replicates. For each trial, a single EAB (male or female) was given 10 min to choose between the two stimuli. A choice was recorded when the beetle passed a “finish line”, 7 cm beyond the branching point of each arm. […] Beetles were 8-14 d old, and 18-23 beetles were used per treatment.
(§1) For the EAG results, male and female EAG responses were submitted to analysis of variance (ANOVA) and mean responses to each of the tested compounds separated using Tukey's test (P<0.05). […] Finally, in the trapping study, numbers of male and female EAB captured among the three treatments were analyzed separately by fitting generalized linear mixed effect models, with block as a random factor, to the Poisson distribution (GLMER function, R Development Core Team 2013). Chi-square tests were used to determine if a significant proportion of the variation in capture of male and female EAB was attributable to treatment. Chi-square tests were considered significant at P=0.05 or less and, if significant, the means separated using the Tukey's contrast option in the GLHT function (R Development Core Team 2013); raw data are presented as means±standard error.

Release rate of lures = assay type: physicochemical; settings: 25° C.
Description: Traps were baited with one of three treatments: 1) (3Z)-hexenol alone; 2) 3.0 mg dose of (3Z)-lactone+(3Z)-hexenol; or 3) dodecan-12-olide+(3Z)-hexenol. The dodecan-12-olide dose was 3.0 mg or 5.0 mg. A higher dose of the analog was used to attempt to increase its effect on captures of EAB relative to the (3Z)-lactone. (3Z)-Lactone and the analog were each loaded onto rubber septa lures (Wheaton Scientific, Millville, N.J.). (3Z)-Hexenol lures were obtained from Synergy Semiochemicals. Release rates of the 3.0 mg (3Z)-lactone, 3.0 mg and 5.0 mg dodecan-12-olide lures, and (3Z)-hexenol were ˜66 μg/d, ˜60 μg/d and ˜80 μg/d. These values were determined as in Silk et al. 2011, and 50-100 mg/d (by weight loss), respectively, at 25° C. The (3Z)-lactone and analog lures were estimated to maintain sustained and almost constant release rates for a minimum of 6 wk, and thus were not replaced during the experiment. Similarly, (3Z)-hexenol lures were not replaced during the experiment.

EAB = assay: Field trapping studies, dark green sticky prism traps co-baited with (3Z)-hexenol; assay type: in vivo, Agrilus planipennis
Description: Three trapping experiments were conducted to test the effects of (3Z)-lactone and dodecan-12-olide on mean captures of EAB on dark green sticky prism traps using protocols discussed by Francese et al. in 2010 (Francese J A, Crook D J, Fraser I, Lance D A, A. J. Sawyer A J, Mastro V C (2010a) Optimization of trap color for the emerald ash borer, Agrilus planipennis (Coleoptera: Buprestidae). J Econ Entomol 103: 1235-1241) co-baited with (3Z)-hexenol. Urban street trees were used: trees were 20-40 cm in diameter, and 10-16 m in height. […] Dark green prism sticky traps (0.30×25.00×58.75 cm) (Synergy Semiochemicals Corp., Burnaby, British Columbia) were used in all field trials. Traps were spaced˜25 m apart, and lure treatments replicated in a randomized complete block design. Traps were deployed using either a limb hook over a lower to mid-canopy branch or a single rope over a mid-canopy branch. In both years, traps were checked every 2 wk and all EAB were collected, counted, and sexed.
Traps were baited with one of three treatments: 1) (3Z)-hexenol alone; 2) 3.0 mg dose of (3Z)-lactone+(3Z)-hexenol; or 3) dodecan-12-olide+(3Z)-hexenol. The dodecan-12-olide dose was 3.0 mg or 5.0 mg. A higher dose of the analog was used to attempt to increase its effect on captures of EAB relative to the (3Z)-lactone. (3Z)-Lactone and the analog were each loaded onto rubber septa lures (Wheaton Scientific, Millville, N.J.). (3Z)-Hexenol lures were obtained from Synergy Semiochemicals. […] These values were determined as in Silk et al. 2011, and 50-100 mg/d (by weight loss), respectively, at 25° C. […]
For the EAG results, male and female EAG responses were submitted to analysis of variance (ANOVA) and mean responses to each of the tested compounds separated using Tukey's test (P<0.05). […] Finally, in the trapping study, numbers of male and female EAB captured among the three treatments were analyzed separately by fitting generalized linear mixed effect models, with block as a random factor, to the Poisson distribution (GLMER function, R Development Core Team 2013). […]

[1] = system: male and female EAB antennae; assay: Electroantennography (EAG), puff technique; set-up: species or system Agrilus planipennis; settings: for electroantennogram activity with male or female EABs: compared with controls / with the (3Z)- and (3E)-lactones
Description: Electroantennogram analyses (EAG) were conducted using methods and equipment generally described by Silk et al. in 2007 (Silk P J, et al (2007) Evidence for a male-produced pheromone in Tetropium fuscum (F.) (Coleoptera: Cerambycidae). Naturwissenschaften 94: 697-701). Antennae were excised close to the head and mounted using electrode gel (Spectra 360 electrode gel; Parker, Fairfield, N.J., USA) on an EAG probe (gold) for electrical contact. EAG signals were recorded using Syntech recording and analysis software v. 2.6 (Syntech, Hilversum, The Netherlands).
The (3Z)- and (3E)-lactones, and dodecan-12-olide were tested using the puff technique described by Silk et al. in 2011 (Silk P J, Ryall K, Mayo P, Lemay M, Grant G, Crook D, Cossé A, Fraser I, Sweeney J D, Lyons D B, Pitt D, Scarr T, Magee D (2011) Evidence for a volatile pheromone in Agrilus planipennis Fairmaire (Coleoptera: Buprestidae) that increases attraction to a host foliar volatile. Env Entomol 40: 904-916). Briefly: two microliters of serially diluted solutions (dichloromethane; DCM) of synthetic compounds were applied to filter paper strips (0.5 cm×5 cm, Whatman No. 1). The filter paper strips were placed in 14 cm long Pasteur pipettes, hereafter referred to as stimulus cartridges, after 5 min at room temperature. The stimulus dose tested was 1 μg. Male and female antennae were exposed to single 0.2 s puffs of odor-bearing air at 5 ml/s by placing the tip of a stimulus cartridge into a hole of a glass tube (0.7 cm ID×20 cm), 10 cm from the outlet and 11 cm away from the antennal preparation. Airflow through the glass tube was passed through a water bubbler and set at 10 ml/s. Each antennal preparation was tested with freshly prepared sets of stimuli cartridges using ˜6 male and ˜10 female antennae/treatment and used once for each treatment.
as §1

O=C1CCCCCCCCCCCO1 [dodecan-12-olide]
attraction of female EAB to stimulus vs solvent control (adult EAB; females, 10 min choice, chi-square vs 1:1, FIG. 6): attracted
attraction of male EAB to stimulus vs solvent control (adult EAB; males, 10 min choice, chi-square vs 1:1, FIG. 5): attracted
release rate of lure (Release rate of lures; 3.0 mg on rubber septa lure): ~60 µg/day
release rate of lure (Release rate of lures; 5.0 mg on rubber septa lure): ~80 µg/day
females captured vs the other two treatments (EAB; FIG. 7a, 3 mg per lure, co-baited with (3Z)-hexenol): significantly more females were captured
females captured vs (3Z)-hexenol alone (EAB; FIG. 7b, dodecan-12-olide 5 mg, (3Z)-lactone 3 mg per lure, P<0.01): more females were captured
activity relative to the natural (3Z)-lactone under comparable conditions (EAB; field trial, 3 mg per lure, male captures): about 85%
mean EAG responses of male and female EAB antennae ([1]; 1 μg source concentration, vs solvent control (dichloromethane), responses to the three compounds not significantly different from each other (Tukey's), FIG. 4): significantly greater than those to the solvent control
electroantennogram activity with male or female EABs [1]: comparable to the corresponding electroantennogram activity both the natural (3Z)-lactone and the (3E)-lactone analog

O=C1C/C=C\CCCCCCCCO1 [(3Z)-lactone, (3Z)-dodecen-12-olide, reference compound]
electroantennogram activity with male or female EABs [1]: active

CC/C=C\CCO [(3Z)-hexenol, reference compound]
release rate of lure (Release rate of lures; by weight loss): 50000 to 100000 µg/day

O=C1C/C=C/CCCCCCCCO1 [(3E)-lactone, (3E)-dodecen-12-olide, reference compound]
proportion of the beetles that chose the stimulus arm (adult EAB; about 25% chose the control, no-choice beetles excluded, sex not given): about 75%
electroantennogram activity with male or female EABs [1]: active

O=C1CCCCCCCCCCCCCCO1 [pentadecan-15-olide, reference compound]
electroantennogram activity with male or female EABs [1]: not significantly different from the controls

O=C1/C=C/CCCCCCCCCO1 [2E-dodecan-12-olide]
electroantennogram activity with male or female EABs [1]: not significantly different from the controls
